From patent US20260022143A1, “Cyclic Peptide Inhibitors of IL-23” (JANSSEN PHARMACEUTICA NV, priority 2022, published 2026)
Positions of bridges follow the written chain, without caps; N, C: chain ends. Non-standard residues stand in square brackets, D forms with d. Residues, ends and D or L forms follow the SMILES beside them. *: point of attachment. Me3N+(CH2)2O(CH2)2O(CH2)2CO = C[N+](C)(C)CCOCCOCCC(=O)*; Trp(7-Me) = Cc1cccc2c(C[C@H](N)C(=O)O)c[nH]c12; 2Nal = N[C@@H](Cc1ccc2ccccc2c1)C(=O)O; AEF = NCCOc1ccc(C[C@H](N)C(=O)O)cc1; X26 = C[N+](C)(C)CCCCc1cn(CC*)nn1; 3Pal = N[C@@H](Cc1cccnc1)C(=O)O; Lys(Me) = CNCCCC[C@H](N)C(=O)O; Pen = CC(C)(S)[C@H](N)C(=O)O; Thp = NC1(C(=O)O)CCOCC1; Aib = CC(C)(N)C(=O)O; Sar = CNCC(=O)O

Tests used:
[1] = Exposed Polar Surface Area (EPSA); type: physicochemical; settings: SFC on Chirex 3014 column; sample 1 mM DMSO stock; read-out: EPSA
Method in brief: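 Compounds, as 1 mM DMSO stock, were injected in duplicate onto an SFC Chirex 3014 column at 35 °C and eluted with a CO2/methanol (20 mM ammonium formate) gradient. EPSA values in Å^2 were derived from retention times using a linear fit to eight calibration standards, reinjected every 20 compounds.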

[2] = target: T1, IL-23R (Homo sapiens, UniProt Q5VWK5); assay: IL23R Reporter Assay; type: cell-based; settings: HEK293 cells containing IL-23R, IL-12RP1 and STAT-inducible firefly luciferase reporter; 10 ng/mL IL-23 (EC90); 5 h at 37° C.; read-out: IL23R Reporter Assay
T1 construct: host or cells: HEK293
T1 sequence (Q5VWK5 24-629): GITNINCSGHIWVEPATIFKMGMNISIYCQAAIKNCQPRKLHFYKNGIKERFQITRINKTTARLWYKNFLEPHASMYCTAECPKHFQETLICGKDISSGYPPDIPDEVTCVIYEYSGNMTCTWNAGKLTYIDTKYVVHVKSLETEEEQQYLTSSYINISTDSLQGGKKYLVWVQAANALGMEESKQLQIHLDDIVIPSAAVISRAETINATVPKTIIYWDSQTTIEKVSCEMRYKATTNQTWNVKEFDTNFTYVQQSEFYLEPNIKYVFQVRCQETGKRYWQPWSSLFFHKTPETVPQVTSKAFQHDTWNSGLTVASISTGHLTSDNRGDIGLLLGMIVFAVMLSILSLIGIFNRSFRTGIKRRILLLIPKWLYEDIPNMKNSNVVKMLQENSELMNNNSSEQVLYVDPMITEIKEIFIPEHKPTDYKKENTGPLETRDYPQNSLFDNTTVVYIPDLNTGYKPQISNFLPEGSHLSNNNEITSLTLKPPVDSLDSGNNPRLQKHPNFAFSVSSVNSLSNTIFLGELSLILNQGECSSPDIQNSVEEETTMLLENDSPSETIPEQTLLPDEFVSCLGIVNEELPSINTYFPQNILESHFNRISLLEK

EPSA [1]	IC50 [2]	Structure (SMILES)
175 A^2	4.6 nM	CC(=O)NCCCC[C@@H]1NC(=O)[C@H](Cc2c[nH]c3c(-c4cccc(NC(C)=O)c4)cccc23)NC(=O)[C@H]([C@@H](C)O)NC(=O)[C@H](CC(N)=O)NC(=O)[C@@H](NC(=O)CCOCCOCC[N+](C)(C)C)C(C)(C)SSC(C)(C)[C@@H](C(=O)N[C@@H](Cc2ccc(OCCCCC[N+](C)(C)C)cc2)C(=O)N[C@@H](Cc2ccc3ccccc3c2)C(=O)NC2(C(=O)N[C@@H](CCCCN(C)C(C)=O)C(=O)N[C@@H](CC(N)=O)C(=O)N[C@@H](Cc3cncc(C)c3)C(=O)N(C)CC(N)=O)CCOCC2)NC1=O [compound 501, cPEG3aCO-Pen(3)-N-T-7(3NAcPh)W-K(Ac)-Pen(3)-TMAPF-2Nal-THP-K(NMeAc)-N-5MePyridinAla-Sar-CONH2]
151 A^2	6.9 nM	CC(=O)NCCCC[C@@H]1NC(=O)[C@H](Cc2c[nH]c3c(C)cccc23)NC(=O)[C@H]([C@@H](C)O)NC(=O)[C@H](CC(N)=O)NC(=O)[C@@H](NC(C)=O)C(C)(C)SSC(C)(C)[C@@H](C(=O)N[C@@H](Cc2ccc(OCCn3cc(CCCC[N+](C)(C)C)nn3)cc2)C(=O)N[C@@H](Cc2ccc3ccccc3c2)C(=O)NC2(C(=O)N[C@@H](CCCCNC(C)=O)C(=O)N[C@@H](CC(N)=O)C(=O)N[C@@H](Cc3cccnc3)C(=O)N(C)CC(N)=O)CCOCC2)NC1=O [compound 258] (Ac-[Pen]NT[Trp(7-Me)]K(Ac)[Pen]Y(X26)[2Nal][Thp]K(Ac)N[3Pal][Sar]-NH2; disulfide 1-6 (inferred))

The next lines start with the compound.

Structure (SMILES)	EPSA [1]	IC50 [2]
Cc1cccc2c(C[C@@H]3NC(=O)[C@H]([C@@H](C)O)NC(=O)[C@H](CC(=O)N(C)C)NC(=O)[C@@H](NC(=O)CCOCCOCC[N+](C)(C)C)C(C)(C)SSC(C)(C)[C@@H](C(=O)N[C@@H](Cc4ccc(OCCN)cc4)C(=O)N[C@@H](Cc4ccc5ccccc5c4)C(=O)NC4(C(=O)N[C@@H](CCC(=O)N(C)C)C(=O)N[C@@H](CC(N)=O)C(=O)N[C@@H](Cc5cccnc5)C(=O)N(C)CC(=O)N(C)C)CCOCC4)NC(=O)[C@H](CCC(=O)N(C)C)NC3=O)c[nH]c12 [compound 139, cPEG3aCO-Pen(3)-N(N(Me)2)-T-7MeW-Q(N(Me)2)-Pen(3)-AEF-2Nal-THP-Q(N(Me)2)-N-3Pya-Sar-CON(Me)2] ({Me3N+(CH2)2O(CH2)2O(CH2)2CO}-[Pen]D(NMe2)T[Trp(7-Me)]E(NMe2)[Pen][AEF][2Nal][Thp]E(NMe2)N[3Pal][Sar]-NMe2; disulfide 1-6)	150 A^2	3.4 nM
CNC(=O)C[C@@H]1NC(=O)[C@@H](NC(C)=O)C(C)(C)SSC(C)(C)[C@@H](C(=O)N[C@@H](Cc2ccc(OCCNC(C)=O)cc2)C(=O)N[C@@H](Cc2ccc3ccccc3c2)C(=O)NC2(C(=O)N[C@@H](CCCCN(C)C(C)=O)C(=O)N[C@@H](CC(N)=O)C(=O)N[C@@H](Cc3cccnc3)C(=O)N(C)CC(N)=O)CCOCC2)NC(=O)[C@H](CCCCN(C)C(C)=O)NC(=O)[C@H](Cc2c[nH]c3c(C)cccc23)NC(=O)[C@H]([C@@H](C)O)NC1=O [compound 58] (Ac-[Pen]D(NHMe)T[Trp(7-Me)][Lys(Me)](Ac)[Pen][AEF](Ac)[2Nal][Thp][Lys(Me)](Ac)N[3Pal][Sar]-NH2; disulfide 1-6)	154 A^2	4.3 nM
Cc1cccc2c(C[C@@H]3NC(=O)[C@H]([C@@H](C)O)NC(=O)[C@H](CC(=O)N(C)C)NC(=O)[C@@H](NC(=O)CCOCCOCC[N+](C)(C)C)C(C)(C)SSC(C)(C)[C@@H](C(=O)N[C@@H](Cc4ccc(OCCN)cc4)C(=O)N[C@@H](Cc4ccc5ccccc5c4)C(=O)NC4(C(=O)NC(C)(C)C(=O)N[C@@H](CC(N)=O)C(=O)N[C@@H](Cc5cccnc5)C(=O)N(C)CC(=O)N(C)C)CCOCC4)NC(=O)C(C)(C)NC3=O)c[nH]c12 [compound 142, cPEG3aCO-Pen(3)-N(N(Me)2)-T-7MeW-AIB-Pen(3)-AEF-2Nal-THP-AIB-N-3Pya-Sar-CON(Me)2] ({Me3N+(CH2)2O(CH2)2O(CH2)2CO}-[Pen]D(NMe2)T[Trp(7-Me)][Aib][Pen][AEF][2Nal][Thp][Aib]N[3Pal][Sar]-NMe2; disulfide 1-6)	166 A^2	6.6 nM
